From patent US12486269B2 (Aconcagua Bio, Inc., priority 2024, dated 2025) come the findings set out here.

The target of test [1] is T1, human calcitonin receptor (CTR) (Homo sapiens, UniProt P30988).
T1 construct: expressed in transfected cells; host or cells: COS-7 (COS7-human CTR Clone #2)
T1 sequence (P30988 25-474): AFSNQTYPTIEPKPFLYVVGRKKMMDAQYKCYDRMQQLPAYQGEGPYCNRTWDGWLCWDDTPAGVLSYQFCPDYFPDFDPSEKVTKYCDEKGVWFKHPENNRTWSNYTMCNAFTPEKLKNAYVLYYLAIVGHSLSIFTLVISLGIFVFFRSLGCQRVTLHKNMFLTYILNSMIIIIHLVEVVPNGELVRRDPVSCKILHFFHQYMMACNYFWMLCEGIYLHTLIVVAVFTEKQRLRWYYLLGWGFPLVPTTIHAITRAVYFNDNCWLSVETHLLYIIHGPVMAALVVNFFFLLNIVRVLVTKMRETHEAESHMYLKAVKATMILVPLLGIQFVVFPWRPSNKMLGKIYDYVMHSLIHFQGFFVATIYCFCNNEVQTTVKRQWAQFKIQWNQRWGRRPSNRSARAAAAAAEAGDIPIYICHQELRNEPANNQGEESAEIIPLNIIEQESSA
As to the kind of experiment: Calcitonin Receptor (CTR) cAMP Assay. It is filed as cell-based. The note with it: COS7-human CTR Clone #2 stable cell line, cAMP dynamic 2 kit, 30 min; read-out: Calcitonin Receptor cAMP Stimulation Activity: EC50. As for the experimental part: (§1) After incubation, the cAMP assay signal was generated using cAMP dynamic 2 kit (Revvity, Cat #62AM4PEC). 10 μL cAMP-d2 working solution was added to each well, followed by 10 μL Anti-cAMP antibody-cryptate working solution which was added to each well using CERTUS FLEX LIQUID […]. The samples were then incubated at room temperature for 1 hour protected from light. the fluorescence was read at 665 and 615 nm with Reader PerkinElmer EnVision 2105. % Activity=100−(mean RLU of test sample−mean RLU of positive control)/(mean RLU of vehicle control−mean RLU of positive control)×100 Calcitonin Receptor (CTR) cAMP Assay
The calcitonin receptor (CTR) belongs to the subfamily of GPCRs known as the secretin or ‘B’ family of GPCRs. Like other class B1 GPCRs, the CT receptor family is canonically coupled to Gs-mediated cAMP production, and measurement of cAMP accumulation has been the primary assay used to determine peptide selectivity and potency.
(§2) To optimize functional activity directed toward Gαs coupling, COS-7 cells were stably transfected with human calcitonin receptor (CTR) to create COS7-human CTR Clone #2 stable cell line. 100×concentration of compound working solutions were prepared with 4-fold serial dilution in 384-well Echo LDV plate (Labcyte, Cat #LP-0200-BC). 200 nL/well 100×concentration of compound working solutions were moved to 384-well white microplate (Perkin Elmer, Cat #6007680) using Labcyte ECHO550. 1×10^5 cells/mL COS7-human CTR Clone #2 cell suspensions prepared with assay buffer [HBSS containing 20 mM HEPES (Gibco, Cat #15630-080), 0.5 mM IBMX (Sigma, Cat #15879) and 0.1% Casein (Sigma, Cat #C4765)], 20 μL cell suspensions were added to each well of previous generated assay plate which already contains 200 nL compound at 100×concentration using ThermoFisher Multidrop Combi (2000 cells/well). Seal the plate and incubate at 37° C. with 5% CO2 for 30 min.
After incubation, the cAMP assay signal was generated using cAMP dynamic 2 kit (Revvity, Cat #62AM4PEC). 10 μL cAMP-d2 working solution was added to each well, followed by 10 μL Anti-cAMP antibody-cryptate working solution which was added to each well using CERTUS FLEX LIQUID […]. The samples were then incubated at room temperature for 1 hour protected from light. the fluorescence was read at 665 and 615 nm with Reader PerkinElmer EnVision 2105. % Activity=100−(mean RLU of test sample−mean RLU of positive control)/(mean RLU of vehicle control−mean RLU of positive control)×100

For test [2], the target named is T2, COS-7/AMY3 (human calcitonin receptor (CTR) and RAMP3) (Homo sapiens, UniProt O60896+P30988).
T2 construct: expressed in transfected cells; host or cells: COS-7
Briefly: Amylin Receptor cAMP Assay II. It is filed as cell-based. To be noted: values marked **: Amylin Receptor cAMP Assay II; COS-7/AMY3 cells, cAMP dynamic 2 kit, 30 min; read-out: Amylin Receptor cAMP Stimulation Activity: EC50.
Source text: AMYRs are heterodimers of the class B calcitonin (CT) G-protein-coupled receptor (CTR) and receptor activity-modifying proteins (RAMPs). All three RAMPs can interact with the CTR and form AMY1, AMY2, AMY3 with RAMP1, RAMP2 and RAMP3, respectively. Like other class B1 GPCRs, the CT receptor family is canonically coupled to Gs-mediated cAMP production, and measurement of cAMP accumulation has been the primary assay used to determine peptide selectivity and potency.
as §2, with “and RAMP3, simultaneously.” for “to create COS7-human CTR Clone #2 stable cell line.”, “COS-7/AMY3” for “COS7-human CTR Clone #2”
as §1

T2 sequence (O60896 24-148, one chain of several): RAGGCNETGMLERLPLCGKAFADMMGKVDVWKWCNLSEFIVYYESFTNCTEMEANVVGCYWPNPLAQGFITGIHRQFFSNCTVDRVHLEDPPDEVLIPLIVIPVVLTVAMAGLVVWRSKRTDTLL

For `O=C1c2c(nc(CCc3ccc(F)cc3)c(-c3noc(=O)[nH]3)c2-c2cc3ccnc(OCc4ccc(F)c(F)c4)c3s2)[C@@H]2CCCN12` [Compound 133, (S)-3-(4-(7-((3,4-difluorobenzyl)oxy)thieno[2,3-c]pyridin-2-yl)-2-(4-fluorophenethyl)-5-oxo-7,8,9,9a-tetrahydro-5H-pyrido[2,3-a]pyrrolizin-3-yl)-1,2,4-oxadiazol-5(4H)-one], the EC50 in test [1] was determined as 4.42 nM; in test [2], 90.7 nM.
For the compound `O=C1c2c(nc(CCc3ccc(F)cc3)c(-c3noc(=O)[nH]3)c2-c2cc3ccnc(N[C@@H]4CCCc5ccccc54)c3s2)[C@@H]2CCCN12` [Compound 139], the EC50 in test [1] is 2.7 nM; in test [2], 41.5 nM.
For the compound `C[C@@H](Nc1nccc2cc(-c3c4c(nc(CCc5ccc(F)cc5)c3-c3noc(=O)[nH]3)[C@@H]3CCCN3C4=O)sc12)c1ccc(F)c(F)c1` [Compound 140], the half-maximal effective concentration (EC50) was determined as 2.13 nM in test [1] and 19.1 nM in test [2].
Regarding `C[C@H](Nc1nccc2cc(-c3c4c(nc(CCc5ccc(F)cc5)c3-c3noc(=O)[nH]3)[C@@H]3CCCN3C4=O)sc12)c1ccc(F)c(F)c1` [Compound 141], the EC50 came to 88.8 nM in test [1] and 711 nM in test [2].
For `O=C1c2c(nc(CCc3ccc(F)cc3)c(-c3noc(=O)[nH]3)c2-c2cc3ccnc(NCc4ccc(F)c(Cl)c4)c3s2)[C@@H]2CCCN12` [Compound 146], in that order: 3.18 nM and 54.1 nM.
For the compound `O=C1c2c(nc(CCc3ccc(F)cc3)c(-c3noc(=O)[nH]3)c2-c2cc3ccnc(NCc4ccc(Cl)c(F)c4)c3s2)[C@@H]2CCCN12` [Compound 147], the EC50 was 2.8 nM in test [1] and 51.9 nM in test [2].
For `O=C1c2c(nc(CCc3ccc(F)cc3)c(-c3noc(=O)[nH]3)c2-c2cc3ccnc(NCc4ccc5c(c4)CCC5)c3s2)[C@@H]2CCCN12` [Compound 148], in that order: 18.7 nM and 288 nM.
Regarding `COc1cccc2c1CC[C@H]2Nc1nccc2cc(-c3c4c(nc(CCc5ccc(F)cc5)c3-c3cc(=O)[nH]o3)[C@@H]3CCCN3C4=O)sc12` [Compound 150, 5-((S)-2-(4-fluorophenethyl)-4-(7-(((R)-4-methoxy-2,3-dihydro-1H-inden-1-yl)amino)thieno[2,3-c]pyridin-2-yl)-5-oxo-7,8,9,9a-tetrahydro-5H-pyrido[2,3-a]pyrrolizin-3-yl)isoxazol-3(2H)-one], the results for the EC50 in test [1] and in test [2] were 1.06 nM and 25.4 nM, respectively.
As to `COc1cccc2c1CC[C@H]2Nc1nccc2cc(-c3c4c(nc(CCc5cccc(C6CCOC6)c5)c3-c3noc(=O)[nH]3)[C@@H]3CCCN3C4=O)sc12` (stereo partly drawn) [Compound 151, 3-((9aS)-4-(7-(((R)-4-methoxy-2,3-dihydro-1H-inden-1-yl)amino)thieno[2,3-c]pyridin-2-yl)-5-oxo-2-(3-(tetrahydrofuran-3-yl)phenethyl)-7,8,9,9a-tetrahydro-5H-pyrido[2,3-a]pyrrolizin-3-yl)-1,2,4-oxadiazol-5(4H)-one], the EC50 in test [1] worked out at 22 nM; in test [2], 159 nM.
As to `O=C1c2c(nc(CCc3ccc(F)cc3)c(-c3noc(=O)[nH]3)c2-c2ccc3nn(C4CCc5ccccc54)cc3c2)[C@@H]2CCCN12` (stereo partly shown) [Compound 152], the concentration for a half-maximal effect (EC50) is 513 nM in test [1] and 5100 nM in test [2].
As for `O=C1c2c(nc(CCc3ccc(F)cc3)c(-c3noc(=O)[nH]3)c2-c2ccc3c(ccn3Cc3ccc(F)c(F)c3)c2)[C@@H]2CCCN12` [Compound 153], the EC50 in test [1] came to 2.58 nM; in test [2], 16.6 nM.
For `CC(C)C1CS(=O)(=O)c2c1nc(CCC1CCOCC1)c(-c1cc(=O)[nH]o1)c2-c1cc2ccnc(N[C@@H]3CCc4ncccc43)c2s1` (stereo partly drawn) [Compound 154, 5-(7-(7-(((R)-6,7-dihydro-5H-cyclopenta[b]pyridin-5-yl)amino)thieno[2,3-c]pyridin-2-yl)-3-isopropyl-1,1-dioxido-5-(2-(tetrahydro-2H-pyran-4-yl)ethyl)-2,3-dihydrothieno[3,2-b]pyridin-6-yl)isoxazol-3(2H)-one], in that order: 52.8 nM and 648 nM.
For `COc1cccc2c1CC[C@H]2Nc1nccc2cc(-c3c(-c4n[nH]c(=O)o4)c(CCc4ccc(F)cc4)nc4c3c(=O)n3n4CCC3)sc12` [Compound 155] the same measures were 1.21 nM and 33.5 nM.
For `COc1cccc2c1CC[C@H]2Nc1nccc2cc(-c3c(-c4n[nH]c(=O)o4)c(CCc4ccc(F)cc4)nc4c3S(=O)(=O)CC4C(C)C)sc12` (stereo partly drawn) [Compound 156, 5-(5-(4-fluorophenethyl)-3-isopropyl-7-(7-(((R)-4-methoxy-2,3-dihydro-1H-inden-1-yl)amino)thieno[2,3-c]pyridin-2-yl)-1,1-dioxido-2,3-dihydrothieno[3,2-b]pyridin-6-yl)-1,3,4-oxadiazol-2(3H)-one], the results for the concentration giving a half-maximal response (EC50) in test [1] and in test [2] were 2.48 nM and 55.4 nM, respectively.
With `CC(C)C1CS(=O)(=O)c2c1nc(CCC1CCOCC1)c(-c1n[nH]c(=O)o1)c2-c1cnc2c(ccn2Cc2ccc(C#N)c(F)c2)c1` (stereo not shown) [Compound 157, 2-fluoro-4-((5-(3-isopropyl-1,1-dioxido-6-(5-oxo-4,5-dihydro-1,3,4-oxadiazol-2-yl)-5-(2-(tetrahydro-2H-pyran-4-yl)ethyl)-2,3-dihydrothieno[3,2-b]pyridin-7-yl)-1H-pyrrolo[2,3-b]pyridin-1-yl)methyl)benzonitrile], the figures for the EC50 in test [1] and in test [2] were 7.42 nM and 115 nM, respectively.
For `N#Cc1ccc(Cn2ccc3cc(-c4c(-c5n[nH]c(=O)o5)c(CCc5ccc(F)cc5)nc5c4c(=O)n4n5CCC4)ccc32)cc1F` [Compound 158, 2-fluoro-4-((5-(2-(4-fluorophenethyl)-5-oxo-3-(5-oxo-4,5-dihydro-1,3,4-oxadiazol-2-yl)-8,9-dihydro-5H,7H-pyrazolo[1′,2′:1,2]pyrazolo[3,4-b]pyridin-4-yl)-1H-indol-1-yl)methyl)benzonitrile], in that order: 1.19 nM and 12.8 nM.
For `CC(c1ccc(C#N)c(F)c1)n1ccc2cc(-c3c(-c4n[nH]c(=O)o4)c(CCc4ccc(F)cc4)nc4c3c(=O)n3n4CCC3)ccc21` (stereo not shown) [Compound 159, 2-fluoro-4-[1-[5-[11-[2-(4-fluorophenyl)ethyl]-7-oxo-10-(2-oxo-3H-1,3,4-oxadiazol-5-yl)-2,6,12-triazatricyclo[6.4.0.02,6]dodeca-1(8),9,11-trien-9-yl]indol-1-yl]ethyl]benzonitrile], in that order: 1.17 nM and 28.7 nM.

For orientation: EC50 means the midpoint of the concentration-response curve.
